Data as given in ChEMBL document CHEMBL1201862, “PubChem BioAssay data set” (2004).
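1) Cells in 96-well plates. 2) Compound, 48 h, 5 concentrations. 3) Linear interpolation between surrounding doses. 4) Unreached endpoint = highest concentration. Abbreviation: GI50, concentration required for 50% inhibition of growth.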 Active and inactive are the calls of the source. Cut-off read from the data, not from the text of the source: active = GI50 up to about 1.1 µM and inactive = higher.

Legend:
Test in all cases: inhibition of tumour cell growth, NCI panel, 48 h
SK-MEL-2 = tested on: SK-MEL-2
ACHN = tested on: ACHN
U-251 = tested on: U-251
HOP-18 = tested on: HOP-18
XF498 = tested on: XF498
UO-31 = tested on: UO-31
NCI-H460 = tested on: NCI-H460
A549 = tested on: A549
SW-620 = tested on: SW-620
RXF 393 = tested on: RXF 393
DLD-1 = tested on: DLD-1
EKVX = tested on: EKVX
HOP-92 = tested on: HOP-92
SN12C = tested on: SN12C
OVCAR-5 = tested on: OVCAR-5
KM12 = tested on: KM12
SF-268 = tested on: SF-268
SR = tested on: SR
SNB-75 = tested on: SNB-75
NCI-H23 = tested on: NCI-H23
OVCAR-3 = tested on: OVCAR-3
SF-295 = tested on: SF-295
OVCAR-4 = tested on: OVCAR-4
M14 = tested on: M14
SK-MEL-28 = tested on: SK-MEL-28
OVCAR-8 = tested on: OVCAR-8
SNB-78 = tested on: SNB-78
A498 = tested on: A498
HCT-15 = tested on: HCT-15
UACC-257 = tested on: UACC-257
HL-60 = tested on: HL-60
KM-20L2 = tested on: KM-20L2
HCC 2998 = tested on: HCC 2998
UACC-62 = tested on: UACC-62
TK-10 = tested on: TK-10
DMS-273 = tested on: DMS-273
MOLT-4 = tested on: MOLT-4
SNB-19 = tested on: SNB-19
SF-539 = tested on: SF-539
LOX IMVI = tested on: LOX IMVI
NCI-H522 = tested on: NCI-H522
RPMI-8226 = tested on: RPMI-8226
COLO 205 = tested on: COLO 205
Malme-3M = tested on: Malme-3M
786-0 = tested on: 786-0
M19-MEL = tested on: M19-MEL
IGROV-1 = tested on: IGROV-1
CCRF-CEM = tested on: CCRF-CEM
CAKI-1 = tested on: CAKI-1
K562 = tested on: K562
HOP-62 = tested on: HOP-62
SK-OV-3 = tested on: SK-OV-3
DMS-114 = tested on: DMS-114
NCI-H226 = tested on: NCI-H226
RXF 631 = tested on: RXF 631
HCT-116 = tested on: HCT-116
SK-MEL-5 = tested on: SK-MEL-5
HT-29 = tested on: HT-29
LXFL 529 = tested on: LXFL 529

Structure (SMILES): Cc1ccccc1NC(=O)/C(=N/NC(=O)CC#N)C1C(=O)N(c2ccccc2)N=C1N (configuration not stated)
- GI50 (SK-MEL-2): > 100 µM (inactive)
- GI50 (ACHN): 60.1 µM (inactive)
- GI50 (U-251): > 100 µM (inactive)
- GI50 (HOP-18): > 100 µM (inactive)
- GI50 (XF498): > 100 µM (inactive)
- GI50 (UO-31): > 100 µM (inactive)
- GI50 (NCI-H460): > 100 µM (inactive)
- GI50 (A549): > 100 µM (inactive)
- GI50 (SW-620): > 100 µM (inactive)
- GI50 (RXF 393): > 100 µM (inactive)
- GI50 (DLD-1): 79.6 µM (inactive)
- GI50 (EKVX): > 100 µM (inactive)
- GI50 (HOP-92): 36.5 µM (inactive)
- GI50 (SN12C): > 100 µM (inactive)
- GI50 (OVCAR-5): > 100 µM (inactive)
- GI50 (KM12): > 100 µM (inactive)
- GI50 (SF-268): > 100 µM (inactive)
- GI50 (SR): 52.1 µM (inactive)
- GI50 (SNB-75): > 100 µM (inactive)
- GI50 (NCI-H23): > 100 µM (inactive)
- GI50 (OVCAR-3): > 100 µM (inactive)
- GI50 (SF-295): > 100 µM (inactive)
- GI50 (OVCAR-4): > 100 µM (inactive)
- GI50 (M14): > 100 µM (inactive)
- GI50 (SK-MEL-28): > 100 µM (inactive)
- GI50 (OVCAR-8): > 100 µM (inactive)
- GI50 (SNB-78): > 100 µM (inactive)
- GI50 (A498): > 100 µM (inactive)
- GI50 (HCT-15): > 100 µM
- GI50 (UACC-257): > 100 µM (inactive)
- GI50 (HL-60): 37.9 µM (inactive)
- GI50 (KM-20L2): > 100 µM (inactive)
- GI50 (HCC 2998): > 100 µM (inactive)
- GI50 (UACC-62): > 100 µM (inactive)
- GI50 (TK-10): > 100 µM (inactive)
- GI50 (DMS-273): > 100 µM (inactive)
- GI50 (MOLT-4): 72.9 µM (inactive)
- GI50 (SNB-19): > 100 µM (inactive)
- GI50 (SF-539): > 100 µM (inactive)
- GI50 (LOX IMVI): > 100 µM (inactive)
- GI50 (NCI-H522): 57.1 µM (inactive)
- GI50 (RPMI-8226): 96.2 µM (inactive)
- GI50 (COLO 205): > 100 µM (inactive)
- GI50 (Malme-3M): > 100 µM (inactive)
- GI50 (786-0): > 100 µM (inactive)
- GI50 (M19-MEL): > 100 µM (inactive)
- GI50 (IGROV-1): > 100 µM (inactive)
- GI50 (CCRF-CEM): 31.3 µM (inactive)
- GI50 (CAKI-1): > 100 µM (inactive)
- GI50 (K562): 75.5 µM (inactive)
- GI50 (HOP-62): > 100 µM (inactive)
- GI50 (SK-OV-3): > 100 µM (inactive)
- GI50 (DMS-114): > 100 µM (inactive)
- GI50 (NCI-H226): > 100 µM (inactive)
- GI50 (RXF 631): > 100 µM (inactive)
- GI50 (HCT-116): > 100 µM (inactive)
- GI50 (SK-MEL-5): > 100 µM (inactive)
- GI50 (HT-29): > 100 µM (inactive)
- GI50 (LXFL 529): > 100 µM (inactive)

Structure (SMILES): Cc1ccc(Oc2ccc(C)cc2[N+](=O)[O-])cc1
- GI50 (SK-MEL-2): > 100 µM (inactive)
- GI50 (ACHN): 69.2 µM (inactive)
- GI50 (U-251): 25.8 µM (inactive)
- GI50 (HOP-18): > 100 µM (inactive)
- GI50 (XF498): 0.275 µM (active)
- GI50 (UO-31): 29.2 µM (inactive)
- GI50 (NCI-H460): 90.8 µM (inactive)
- GI50 (A549): 92.9 µM (inactive)
- GI50 (SW-620): > 100 µM (inactive)
- GI50 (RXF 393): 26.5 µM (inactive)
- GI50 (DLD-1): 77.4 µM (inactive)
- GI50 (EKVX): 48.3 µM (inactive)
- GI50 (HOP-92): 28.6 µM (inactive)
- GI50 (SN12C): > 100 µM (inactive)
- GI50 (OVCAR-5): 38.2 µM (inactive)
- GI50 (KM12): > 100 µM (inactive)
- GI50 (SF-268): > 100 µM (inactive)
- GI50 (SR): 33.7 µM (inactive)
- GI50 (SNB-75): 22.9 µM (inactive)
- GI50 (NCI-H23): 31.5 µM (inactive)
- GI50 (OVCAR-3): 55.8 µM (inactive)
- GI50 (SF-295): > 100 µM (inactive)
- GI50 (OVCAR-4): 6.12 µM (inactive)
- GI50 (M14): 96.6 µM (inactive)
- GI50 (SK-MEL-28): 65.6 µM (inactive)
- GI50 (OVCAR-8): > 100 µM (inactive)
- GI50 (SNB-78): 31.6 µM (inactive)
- GI50 (A498): > 100 µM (inactive)
- GI50 (HCT-15): 63.8 µM
- GI50 (UACC-257): 62.5 µM (inactive)
- GI50 (HL-60): 26.4 µM (inactive)
- GI50 (KM-20L2): > 100 µM (inactive)
- GI50 (HCC 2998): > 100 µM (inactive)
- GI50 (UACC-62): > 100 µM (inactive)
- GI50 (TK-10): > 100 µM (inactive)
- GI50 (DMS-273): > 100 µM (inactive)
- GI50 (MOLT-4): 37.4 µM (inactive)
- GI50 (SF-539): > 100 µM (inactive)
- GI50 (LOX IMVI): 40.1 µM (inactive)
- GI50 (RPMI-8226): 57.8 µM (inactive)
- GI50 (COLO 205): > 100 µM (inactive)
- GI50 (Malme-3M): > 100 µM (inactive)
- GI50 (M19-MEL): 79.4 µM (inactive)
- GI50 (IGROV-1): > 100 µM (inactive)
- GI50 (CCRF-CEM): 36.7 µM (inactive)
- GI50 (K562): 38.5 µM (inactive)
- GI50 (HOP-62): > 100 µM (inactive)
- GI50 (SK-OV-3): > 100 µM (inactive)
- GI50 (DMS-114): 28.4 µM (inactive)
- GI50 (NCI-H226): 57.5 µM (inactive)
- GI50 (RXF 631): > 100 µM (inactive)
- GI50 (HCT-116): 53.6 µM (inactive)
- GI50 (SK-MEL-5): 29.8 µM (inactive)
- GI50 (HT-29): 40.7 µM (inactive)
- GI50 (LXFL 529): 43.6 µM (inactive)

Structure (SMILES): CC(=O)CC(=O)Nc1ccc(OS(N)(=O)=O)cc1
- GI50 (SK-MEL-2): > 100 µM (inactive)
- GI50 (ACHN): > 100 µM (inactive)
- GI50 (U-251): > 100 µM (inactive)
- GI50 (HOP-18): > 100 µM (inactive)
- GI50 (XF498): > 100 µM (inactive)
- GI50 (UO-31): > 100 µM (inactive)
- GI50 (NCI-H460): > 100 µM (inactive)
- GI50 (A549): > 100 µM (inactive)
- GI50 (SW-620): > 100 µM (inactive)
- GI50 (RXF 393): > 100 µM (inactive)
- GI50 (DLD-1): > 100 µM (inactive)
- GI50 (EKVX): > 100 µM (inactive)
- GI50 (HOP-92): > 100 µM (inactive)
- GI50 (SN12C): > 100 µM (inactive)
- GI50 (OVCAR-5): > 100 µM (inactive)
- GI50 (KM12): > 100 µM (inactive)
- GI50 (SF-268): > 100 µM (inactive)
- GI50 (SR): > 100 µM (inactive)
- GI50 (SNB-75): > 100 µM (inactive)
- GI50 (NCI-H23): > 100 µM (inactive)
- GI50 (OVCAR-3): > 100 µM (inactive)
- GI50 (SF-295): > 100 µM (inactive)
- GI50 (OVCAR-4): > 100 µM (inactive)
- GI50 (M14): > 100 µM (inactive)
- GI50 (SK-MEL-28): > 100 µM (inactive)
- GI50 (OVCAR-8): > 100 µM (inactive)
- GI50 (SNB-78): > 100 µM (inactive)
- GI50 (A498): > 100 µM (inactive)
- GI50 (HCT-15): > 100 µM
- GI50 (UACC-257): > 100 µM (inactive)
- GI50 (HL-60): > 100 µM (inactive)
- GI50 (KM-20L2): > 100 µM (inactive)
- GI50 (HCC 2998): > 100 µM (inactive)
- GI50 (UACC-62): > 100 µM (inactive)
- GI50 (TK-10): > 100 µM (inactive)
- GI50 (DMS-273): > 100 µM (inactive)
- GI50 (MOLT-4): > 100 µM (inactive)
- GI50 (SNB-19): > 100 µM (inactive)
- GI50 (SF-539): > 100 µM (inactive)
- GI50 (NCI-H522): > 100 µM (inactive)
- GI50 (RPMI-8226): > 100 µM (inactive)
- GI50 (COLO 205): > 100 µM (inactive)
- GI50 (Malme-3M): > 100 µM (inactive)
- GI50 (786-0): > 100 µM (inactive)
- GI50 (M19-MEL): > 100 µM (inactive)
- GI50 (IGROV-1): > 100 µM (inactive)
- GI50 (CCRF-CEM): > 100 µM (inactive)
- GI50 (CAKI-1): > 100 µM (inactive)
- GI50 (K562): > 100 µM (inactive)
- GI50 (HOP-62): > 100 µM (inactive)
- GI50 (SK-OV-3): > 100 µM (inactive)
- GI50 (DMS-114): > 100 µM (inactive)
- GI50 (NCI-H226): > 100 µM (inactive)
- GI50 (RXF 631): > 100 µM (inactive)
- GI50 (HCT-116): > 100 µM (inactive)
- GI50 (SK-MEL-5): > 100 µM (inactive)
- GI50 (HT-29): > 100 µM (inactive)
- GI50 (LXFL 529): > 100 µM (inactive)
